Measured values published in patent publication US4954507A, “1-tertiary-alkyl-substituted naphthyridine carboxylic acid antibacterial agents” (priority 1988, dated 1990).
Converted amounts (≈) assume the structure as drawn. Read-outs that look alike come from different tables or passages of the source.

Experiments:
Staphylococcus aureus = test: MIC, microtitration dilution method, S. aur.; assay type: cell-based
Procedure: (§1) The compounds of this invention display antibacterial activity when tested by the microtitration dilution method reported by Heifetz et al., Antimicr. Agents & Chemoth., 6. 124 (1974). Minimum inhibitory concentrations (MICs, in μg/ml) for but a few representative compounds according to this invention were determined by the above-mentioned method.

Streptococcus faecalis = test: MIC, microtitration dilution method, S. faecal.; assay type: cell-based
Procedure: as §1

Streptococcus faecium = test: MIC, microtitration dilution method, S. faeci.; assay type: cell-based
Procedure: as §1

Escherichia coli = test: MIC, microtitration dilution method, E. coli; assay type: cell-based
Procedure: as §1

Enterobacter cloacae = test: MIC, microtitration dilution method, E. clo.; assay type: cell-based
Pseudomonas aeruginosa = test: MIC, microtitration dilution method, P. aer.; assay type: cell-based
Procedure: as §1

Klebsiella pneumoniae = test: MIC, K. pneum.; assay type: cell-based
Procedure: as §1

Klebsiella oxytoca = test: MIC, microtitration dilution method, K. oxyto.; assay type: cell-based; conditions: Table 2
Procedure: as §1

[1] = in words; from Tables 2, 3 and 4
physchem = conditions: water
[2] = Escherichia coli, Table 3, E. coli, read-out: MIC
[3] = Staphylococcus aureus, Table 3, S. aur., read-out: MIC
[4] = Enterococcus faecalis, Table 3, S. faecal., read-out: MIC
[5] = Enterococcus faecium, Table 3, S. faeci., read-out: MIC
[6] = Enterobacter cloacae, Table 3, E. clo., read-out: MIC
[7] = Pseudomonas aeruginosa, Table 3, P. aer., read-out: MIC
[8] = Table 3, K. pneum., read-out: MIC

CC1CN(c2nc3c(cc2F)c(=O)c(C(=O)O)cn3C(C)(C)C)CC1N (mixture of isomers) [Example 42]
MIC (Staphylococcus aureus; Staphylococcus aureus): 0.03 µg/mL
MIC (Streptococcus faecalis; Enterococcus faecalis): 0.25 µg/mL
MIC (Streptococcus faecium; Enterococcus faecium): 1 µg/mL
MIC (Escherichia coli; Escherichia coli): 0.008 µg/mL
MIC (Enterobacter cloacae; Enterobacter cloacae): 0.015 µg/mL
MIC (Pseudomonas aeruginosa; Pseudomonas aeruginosa): 0.25 µg/mL
MIC (Klebsiella pneumoniae): 0.06 µg/mL

C[C@H]1CN(c2nc3c(cc2F)c(=O)c(C(=O)O)cn3C(C)(C)C)C[C@H]1N (relative stereo) [Example 47, 7-(cis-3-amino-4-methyl-pyrrolidin-1-yl)-1-(1,1-dimethylethyl)-1,4-dihydro-6-fluoro-4-oxo-1,8-naphthyridine-3-carboxylic acid]
MIC (Staphylococcus aureus; Staphylococcus aureus): 0.015 µg/mL (≈ 0.0414 µM)
MIC (Streptococcus faecalis; Enterococcus faecalis): 0.13 µg/mL (≈ 0.359 µM)
MIC (Streptococcus faecium; Enterococcus faecium): 1 µg/mL (≈ 2.76 µM)
MIC (Escherichia coli; Escherichia coli): 0.25 µg/mL (≈ 0.69 µM)
MIC (Enterobacter cloacae; Enterobacter cloacae): 0.13 µg/mL (≈ 0.359 µM)
MIC (Pseudomonas aeruginosa; Pseudomonas aeruginosa): 0.5 µg/mL (≈ 1.38 µM)
MIC (Klebsiella pneumoniae): 0.03 µg/mL (≈ 0.0828 µM)

CS(=O)(=O)O.C[C@@H]1CN(c2nc3c(cc2F)c(=O)c(C(=O)O)cn3C(C)(C)C)C[C@H]1N (relative stereo) [Example 48, 7-(trans-3-amino-4-methylpyrrolidin-1-yl)-1-(1,1-dimethylethyl)-1,4-dihydro-6-fluoro-4-oxo-1,8-naphthyridine-3-carboxylic acid (methanesulfonate)]
MIC (Staphylococcus aureus; Staphylococcus aureus): 0.008 µg/mL
MIC (Streptococcus faecalis; Enterococcus faecalis): 0.06 µg/mL
MIC (Streptococcus faecium; Enterococcus faecium): 0.5 µg/mL
MIC (Escherichia coli; Escherichia coli): 0.015 µg/mL
MIC (Enterobacter cloacae; Enterobacter cloacae): 0.015 µg/mL
MIC (Pseudomonas aeruginosa; Pseudomonas aeruginosa): 0.25 µg/mL
MIC (Klebsiella pneumoniae): 0.06 µg/mL

O=C(O)c1cn(C2CC2)c2cc(N3CCNCC3)c(F)cc2c1=O [Cip., 1-cyclopropyl-6-fluoro-1,4-dihydro-7-(1-piperazinyl)-4-oxo-quinoline-3-carboxylic acid, reference compound]
MIC (Staphylococcus aureus; Staphylococcus aureus): 0.13 µg/mL (≈ 0.392 µM)
MIC (Streptococcus faecium; Enterococcus faecium): 8 µg/mL (≈ 24.1 µM)
MIC (Escherichia coli; [2]): 0.015 µg/mL (≈ 0.0453 µM)
MIC (Pseudomonas aeruginosa; Pseudomonas aeruginosa): 0.13 µg/mL (≈ 0.392 µM)
MIC (Klebsiella pneumoniae): 0.03 µg/mL (≈ 0.0905 µM)

CC(C)(C)n1cc(C(=O)O)c(=O)c2cc(F)c(N3C[C@@H]4CC[C@H]3CN4)nc21 [Example 23, 7-(1S,4S-2,5-DIAZABICYCLO[2.2.2]OCTAN-2-YL)-1-(1,1-DIMETHYLETHYL)-1,4-DIHYDRO-6-FLUORO-4-OXO-1,8-NAPHTHYRIDINE-3-CARBOXYLIC ACID]
MIC (Staphylococcus aureus; Table 2, S. aur.): 30 µg/mL (≈ 80.1 µM)
MIC (Streptococcus faecalis; Table 2, S. faecal.): 500 µg/mL (≈ 1340 µM)
MIC (Streptococcus faecium; Table 2, S. faeci.): 2000 µg/mL (≈ 5340 µM)
MIC (Escherichia coli; Table 2, E. coli): 130 µg/mL (≈ 347 µM)
MIC (Klebsiella oxytoca): 500 µg/mL (≈ 1340 µM)
MIC (Enterobacter cloacae; Table 2, E. clo.): 60 µg/mL (≈ 160 µM)
MIC (Pseudomonas aeruginosa; Table 2, P. aer.): 1000 µg/mL (≈ 2670 µM)

CC(C)(C)n1cc(C(=O)O)c(=O)c2cc(F)c(N3C[C@H]4C[C@@H]3CN4)nc21 [Example 30]
MIC (Staphylococcus aureus; [3]): 0.06 µg/mL (≈ 0.166 µM)
MIC (Streptococcus faecalis; [4]): 0.25 µg/mL (≈ 0.694 µM)
MIC (Streptococcus faecium; [5]): 2 µg/mL (≈ 5.55 µM)
MIC (Escherichia coli; [2]): 0.06 µg/mL (≈ 0.166 µM)
MIC (Enterobacter cloacae; [6]): 0.03 µg/mL (≈ 0.0832 µM)
MIC (Pseudomonas aeruginosa; [7]): 0.13 µg/mL (≈ 0.361 µM)
MIC (Klebsiella pneumoniae; [8]): 0.06 µg/mL (≈ 0.166 µM)
combination of anti-bacterial, toxicity, and water-solubility properties [1]: highly advantageous combination of the above mentioned properties
solubility (physchem): 80 µg/mL (≈ 222 µM)

CC(C)(C)n1cc(C(=O)O)c(=O)c2cc(F)c(N3CCC(N)C3)nc21 (stereo not shown) [Example 36, 7-(3-AMINO-1-PYRROLIDINYL)-1-(1,1-DIMETHYLETHYL)-1,4-DIHYDRO-6-FLUORO-4-OXO-1,8-NAPHTHYRIDINE-3-CARBOXYLIC ACID]
MIC (Staphylococcus aureus; Staphylococcus aureus): 0.015 µg/mL (≈ 0.0431 µM)
MIC (Streptococcus faecalis; Enterococcus faecalis): 0.25 µg/mL (≈ 0.718 µM)
MIC (Streptococcus faecium; Enterococcus faecium): 1 µg/mL (≈ 2.87 µM)
MIC (Escherichia coli; Escherichia coli): 0.13 µg/mL (≈ 0.373 µM)
MIC (Enterobacter cloacae; Enterobacter cloacae): 0.06 µg/mL (≈ 0.172 µM)
MIC (Pseudomonas aeruginosa; Pseudomonas aeruginosa): 0.25 µg/mL (≈ 0.718 µM)
MIC (Klebsiella pneumoniae): 0.13 µg/mL (≈ 0.373 µM)

CC(C)(C)n1cc(C(=O)O)c(=O)c2cc(F)c(N3CC[C@@H](N)C3)nc21 [Example 45, 7-[(R)-3-AMINO-PYRROLIDINYL]-1-(1,1-DIMETHYLETHYL)-1,4-DIHYDRO-6-FLUORO-4-OXO-1,8-NAPHTHYRIDINE-3-CARBOXYLIC ACID, METHANESULFONATE]
MIC (Staphylococcus aureus; Staphylococcus aureus): 0.15 µg/mL
MIC (Streptococcus faecalis; Enterococcus faecalis): 0.13 µg/mL
MIC (Streptococcus faecium; Enterococcus faecium): 1 µg/mL
MIC (Escherichia coli; Escherichia coli): 0.06 µg/mL
MIC (Enterobacter cloacae; Enterobacter cloacae): 0.06 µg/mL
MIC (Pseudomonas aeruginosa; Pseudomonas aeruginosa): 0.25 µg/mL
MIC (Klebsiella pneumoniae): 0.13 µg/mL

CC(C)(C)n1cc(C(=O)O)c(=O)c2cc(F)c(N3CC[C@H](N)C3)nc21 [Example 46, 7-[(S)-3-amino-1-pyrrolidinyl]-1-(1,1-dimethylethyl)-6-fluoro-1,4-dihydro-4-oxo-1,8-naphthyridine-3-carboxylic acid]
MIC (Staphylococcus aureus; Staphylococcus aureus): 0.008 µg/mL (≈ 0.023 µM)
MIC (Streptococcus faecalis; Enterococcus faecalis): 0.03 µg/mL (≈ 0.0861 µM)
MIC (Streptococcus faecium; Enterococcus faecium): 0.25 µg/mL (≈ 0.718 µM)
MIC (Escherichia coli; Escherichia coli): 0.015 µg/mL (≈ 0.0431 µM)
MIC (Enterobacter cloacae; Enterobacter cloacae): 0.008 µg/mL (≈ 0.023 µM)
MIC (Pseudomonas aeruginosa; Pseudomonas aeruginosa): 0.06 µg/mL (≈ 0.172 µM)
MIC (Klebsiella pneumoniae): 0.03 µg/mL (≈ 0.0861 µM)

CCn1cc(C(=O)O)c(=O)c2cc(F)c(N3CCNCC3)cc21 [Nor., 1-ethyl-6-fluoro-1,4-dihydro-7-(1-piperazinyl)-4-oxo-quinoline-3-carboxylic acid, reference compound]
MIC (Staphylococcus aureus; [3]): 0.25 µg/mL (≈ 0.783 µM)
MIC (Streptococcus faecalis; [4]): 2 µg/mL (≈ 6.26 µM)
MIC (Streptococcus faecium; [5]): 8 µg/mL (≈ 25.1 µM)
MIC (Escherichia coli; [2]): 0.06 µg/mL (≈ 0.188 µM)
MIC (Enterobacter cloacae; [6]): 0.06 µg/mL (≈ 0.188 µM)
MIC (Pseudomonas aeruginosa; [7]): 0.5 µg/mL (≈ 1.57 µM)
MIC (Klebsiella pneumoniae; [8]): 0.03 µg/mL (≈ 0.0939 µM)
